Reference: patent US10324099B2, “Ultrasensitive androgen receptor bioassay” (The Regents of the University of California, priority 2014, dated 2019)

Test system: mutant AR-YFP
Assay: YFP fluorescence in reporter cell nuclei at saturating target hormone
Format: cell-based
Settings: absence of urine
Protocol: For example, YFP fluorescence measured in the cell nuclei of urine-treated reporter cells represents both the effects of target hormone-bound nuclear-translocated mutant AR-YFP, and also the independent effects of urine on the fluorescence properties of YFP. […] Because the effect varies among samples, two aliquots of each sample are required. […] A second sample aliquot is assayed using the methods of the invention. The correction factor is used to subtract the percentage increase from the YFP fluorescence signal measurement of the second aliquot. The corrected YFP fluorescence of the sample then is used to extrapolate the target hormone levels from a standard curve.

C[C@]12CC[C@H]3[C@@H](CCC4=CC(=O)CC[C@@]43C)[C@@H]1CC[C@@H]2O [testosterone] was tested, and the “saturating level (YFP fluorescence in nuclei reaches a maximum)” value was “about 10^−7 M”.
